Assay results reported in patent EP4442684A1, “A CLASS OF PYRIMIDINE COMPOUNDS, AND PREPARATION METHOD THEREFOR AND USE THEREOF” (Shanghai Allist Pharmaceuticals Co., Ltd., priority 2021, dated 2023).
pIC50: −log10 of the molar value.

System: PC-9-EGFR-Del19-T790M-C797S cells
Experiment: proliferation inhibition on PC-9-EGFR-Del19-T790M-C797S cells, sulforhodamine B method (SRB method)
Type: cell-based
Conditions: Homo sapiens, in vitro proliferation inhibition, 72 hours culture, final concentrations 2500 to 0.01nM
Procedure: The in vitro proliferation inhibition activity of the compound on PC-9-EGFR-Del19-T790M-C797Slcells where Del19/T790M/C797S triple mutation exists in exogenously stably overexpressed EGFR protein of human non-small cell lung cancer PC-9 was determined by sulforhodamine B method (SRB method).
Cell source: PC-9-EGFR-Del19-T790M-C797S cells were purchased from Nanjing Cobioer Biosciences Co., Ltd.
PC-9-EGFR-Del19-T790M-C797S cells were cultured in an RPMI1640 complete medium containing puromycin (2µg/ml) and 10% fetal bovine serum. PC-9-EGFR-Del19-T790M-C797S cells in a logarithmic growth phase were taken, seeded in a 96-well plate at a cell density of 5000 cells/135µL complete culture medium/well, placed in a thermostatic incubator containing 5% CO2 at 37°C and cultured for 24 hours to ensure complete anchorage of cells. Each compound was dissolved in dimethyl sulfoxide (DMSO) in advance to prepare a 10mM stock solution, and then the compound was successively diluted with DMSO and the complete culture medium. […]
GraphPad Prism 8.3 software was used for data analysis, and non-linear S-curve regression was used for fitting the data to obtain a dose-effect curve, from which an IC50 value was calculated, and the results are shown in Table 1.

pIC50: 6.25
Structure (SMILES): C=CC(=O)Nc1cc(Nc2nccc(-c3cn(C)c4ccccc34)n2)c(OCC(F)(F)F)nc1N(C)CC[N+](C)(C)[O-] [Compound V]
